Our source for the IC50 and inhibition values is the Kinase Knowledgebase extract (Sharma et al. 2016).

A word on the IC50: it is the midpoint of a concentration-inhibition curve. Lower therefore signals inhibition by little substance. For orientation: inhibition means the relative decrease from the control value, in per cent. Higher therefore signals a strong effect.

For the first test, the target named is MAPK14 (human) (UniProt Q16539). Put plainly: Inhibition of LPS Stimulated TNF Production by U937 Cells.
MAPK14 (human), sequence (Q16539 whole entry, looked up): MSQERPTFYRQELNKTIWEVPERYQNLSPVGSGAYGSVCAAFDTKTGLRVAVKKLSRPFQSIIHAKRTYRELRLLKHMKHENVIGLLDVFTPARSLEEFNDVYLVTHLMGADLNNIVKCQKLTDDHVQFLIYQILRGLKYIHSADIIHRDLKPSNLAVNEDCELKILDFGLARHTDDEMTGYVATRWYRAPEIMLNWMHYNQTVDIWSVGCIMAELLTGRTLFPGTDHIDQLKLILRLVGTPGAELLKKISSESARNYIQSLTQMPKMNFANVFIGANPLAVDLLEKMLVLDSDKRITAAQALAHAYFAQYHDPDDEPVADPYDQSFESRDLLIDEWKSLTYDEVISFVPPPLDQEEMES
Details: not given
Compound `CC(=O)OC(C)(C)C(=O)NCc1[nH]nc(-c2ccc(F)cc2)c1-c1ccncc1` gave a half-inhibitory concentration (IC50) of 0.54 µM.

In the case of `C[C@@H](NC(=O)NCc1ccccc1)c1[nH]nc(-c2ccc(F)cc2)c1-c1ccncc1`, the concentration for half-maximal inhibition (IC50) is 2.42 µM.

Take `O=C(NCCCc1[nH]nc(-c2ccc(F)cc2)c1-c1ccncc1)NCCCN1CCCC1=O`: the IC50 was > 1 µM.

In turn, `CC(C)NC(=O)NCc1[nH]nc(-c2ccc(F)cc2)c1-c1ccncc1` returned a half-inhibitory concentration (IC50) of 10 µM.

For the compound `Cc1cccc(C)c1NC(=O)NCc1[nH]nc(-c2ccc(F)cc2)c1-c1ccncc1`, the IC50 stood at 2.36 µM.

As to `O=C(NCc1[nH]nc(-c2ccc(F)cc2)c1-c1ccncc1)c1cccs1`, the concentration for half-maximal inhibition (IC50) is > 1 µM.

Turning to `O=C(N[C@H](Cc1ccccc1)c1[nH]nc(-c2ccc(F)cc2)c1-c1ccncc1)c1ccccc1C(F)(F)F`, the concentration for half-maximal inhibition (IC50) was > 1 µM.

As for `COc1ccccc1C(=O)N[C@H](Cc1ccccc1)c1[nH]nc(-c2ccc(F)cc2)c1-c1ccncc1`, the IC50 was > 1 µM.

`O=C(c1ccccc1F)N1CCC(c2[nH]nc(-c3ccc(F)cc3)c2-c2ccncc2)CC1` came in with a 50% inhibitory concentration (IC50) of 0.41 µM.

Still in this test, the particulars now being: concentration not given here.
`O=S(=O)(c1ccc(F)cc1)N1CCC(c2[nH]nc(-c3ccc(F)cc3)c2-c2ccncc2)CC1` showed an inhibition of 28%.

Turning to `COc1cc(C(=O)NCc2[nH]nc(-c3ccc(F)cc3)c2-c2ccncc2)cc(OC)c1OC`, the inhibition was 21%.

In the case of `COc1ccccc1CCNC(=O)Cn1nc(-c2ccc(F)cc2)c(-c2ccncc2)c1C`, the inhibition came out at 36%.

`CCOC(=O)C(CC(C)C)NC(=O)NCc1[nH]nc(-c2ccc(F)cc2)c1-c1ccncc1` (stereo not drawn) came in with an inhibition of 9%.

Consider `O=C(NCCCc1[nH]nc(-c2ccc(F)cc2)c1-c1ccncc1)NCc1cccnc1`, for which the inhibition was 11%.

Take `C[C@H](NS(=O)(=O)c1cccc(C(F)(F)F)c1)c1[nH]nc(-c2ccc(F)cc2)c1-c1ccncc1`: the inhibition amounted to 83%.

With `O=S(=O)(NCc1[nH]nc(-c2ccc(F)cc2)c1-c1ccncc1)c1cccc2cnccc12`, the inhibition came out at 24%.

`C[C@@H](NC(=O)c1cc(C(F)(F)F)ccc1F)c1[nH]nc(-c2ccc(F)cc2)c1-c1ccncc1`: the inhibition turned out to be 43%.

As for `O=S(=O)(NCc1[nH]nc(-c2ccc(F)cc2)c1-c1ccncc1)c1cccc2nonc12`, the inhibition turned out to be 54%.

On to `C[C@@H](NS(=O)(=O)c1cccc(Br)c1)c1[nH]nc(-c2ccc(F)cc2)c1-c1ccncc1`, for which the inhibition is 95%.

Regarding `CC(=O)OC(C)(C)C(=O)N[C@H](C)c1[nH]nc(-c2ccc(F)cc2)c1-c1ccncc1`, the inhibition worked out at 17%.

The compound `COC(=O)NCc1[nH]nc(-c2ccc(F)cc2)c1-c1ccncc1` yielded an inhibition of 52%.

Compound `C[C@H](NS(=O)(=O)c1ccc(-c2ccccn2)s1)c1[nH]nc(-c2ccc(F)cc2)c1-c1ccncc1` displayed an inhibition of 92%.

Turning to `O=C(N[C@H](Cc1ccccc1)c1[nH]nc(-c2ccc(F)cc2)c1-c1ccncc1)c1ccccc1C(F)(F)F`, the inhibition turned out to be 25%.

`CNC(=O)N[C@@H](Cc1ccccc1)c1[nH]nc(-c2ccc(F)cc2)c1-c1ccncc1`: the inhibition was determined as 11%.

The compound `O=S(=O)(NCc1[nH]nc(-c2ccc(F)cc2)c1-c1ccncc1)c1cccc(C(F)(F)F)c1` displayed an inhibition of 75%.

The compound `O=C(NCc1[nH]nc(-c2ccc(F)cc2)c1-c1ccncc1)Nc1ccc(OC(F)(F)F)cc1` registered an inhibition of 11%.

For the compound `O=C(NCc1[nH]nc(-c2ccc(F)cc2)c1-c1ccncc1)c1ccncc1`, the inhibition was determined as 3%.

With `C[C@@H](NS(=O)(=O)c1cccc(Cl)c1Cl)c1[nH]nc(-c2ccc(F)cc2)c1-c1ccncc1`, the inhibition is 83%.

`O=C(NCc1[nH]nc(-c2ccc(F)cc2)c1-c1ccncc1)Nc1cc(Cl)cc(Cl)c1` yielded an inhibition of 20%.

Compound `C[C@@H](NS(=O)(=O)c1ccc(CNC(=O)c2ccccc2)s1)c1[nH]nc(-c2ccc(F)cc2)c1-c1ccncc1` showed an inhibition of 88%.

With `COc1ccccc1C(=O)N[C@H](Cc1ccccc1)c1[nH]nc(-c2ccc(F)cc2)c1-c1ccncc1`, the inhibition worked out at 2%.

In turn, `C[C@@H](NC(=O)c1cc2ccccc2s1)c1[nH]nc(-c2ccc(F)cc2)c1-c1ccncc1` yielded an inhibition of 16%.

Turning to `CC(C)NC(=O)N[C@@H](C)c1[nH]nc(-c2ccc(F)cc2)c1-c1ccncc1`, the inhibition came to 47%.
